The values that follow come from patent US9034439B2, “Synthesis and applications of soluble pentacene precursors and related compounds” (Academia Sinica, priority 2008, dated 2015).

Converted amounts (≈) assume the structure as drawn. “Also recorded” adds a separate entry of the source. Read-outs that look alike come from different tables or passages of the source.

The conditions of data set [1]: organic solvents; cited from earlier work.
Data set [2] is described as follows: Solubility in organic solvents. The class given is physicochemical. The note with it: for solubility (comparison in words): organic solvents.
Data set [3] is described as follows: Thermal fragmentation / decomposition (thermogravimetric analysis, heating). The class given is physicochemical. The note with it: for thermal conversion of spin-cast film to pentacene: heating amorphous thin films cast from toluene. The method, then:
FIG. 2 presents thermogravimetric analysis curves for compounds 1 (blue) and 2 (red) at 10° C./min heating rate, assessing the carbon monoxide (CO) expulsion reaction, in which the carbonyl bridge is released from the precursor for conversion to pentacene.
Melting points were taken on a Fargo MP-2D melting-point apparatus and were not corrected. UV spectra were recorded on a Hewlett-Packard 8453 spectrophotometer. Infrared spectra were measured on a Perkin-Elmer L118-F000 FT-IR spectrometer as either thin film or solid dispersion in KBr. Nuclear magnetic resonance spectra were recorded on Bruker AC300 and AV500 super-conducting FT NMR spectrometers with all chemical shifts reported in ppm from tetramethylsilane as an internal standard. Mass spectra were obtained on a Joel JMS 700 double focusing spectrometer. Elemental analyses were performed on a Perkin-Elmer 2400 elemental analyzer. Thermal gravimetric analyses were measured on a Perkin-Elmer Pyris 1 thermogravimetric analyzer. Differential scanning calorimetry was done on a Perkin-Elmer DCS-7 instrument. Column chromatography was carried out using 230-400 mesh silica gel.

A short description of data set [4]: Stability on storage / at ambient conditions. Type of data set: physicochemical.
For data set [5] the following is noted: heating; earlier reports; cited from earlier work.
[6] abbreviates: toluene, solutions for spin-casting.
[7] abbreviates: organic solvent or mixture, dichloromethane (DCM) and tetrahydrofuran (THF), read-out: solubility.

Broadly, the solubility is the dissolved amount per volume that the medium holds. With `C(=C\c1cccs1)/c1ccc2cc3cc(/C=C/c4cccs4)ccc3cc2c1` [Compound 36], the solubility entry in data set [1] is “undesirably low solubility”. In the case of `C(=C\c1ccc2cc3cc(/C=C/c4ccccc4)ccc3cc2c1)/c1ccccc1` [Compound 38], in data set [1], the solubility entry is reported as “undesirably low solubility”. Turning to `COC1(OC)C2(Cl)C(Cl)=C(Cl)C1(Cl)c1cc3cc4cc5c(cc4cc3cc12)C1(Cl)C(Cl)=C(Cl)C5(Cl)C1(OC)OC` [Compound 23], the solubility result in data set [2] (setting [6]) is recorded as “good solubility”. Besides, the results for the decomposition temperature in data set [3] (anti isomer) and in data set [3] (syn isomer) were 297 °C and 271 °C, respectively. For the same compound, the “thermal conversion of spin-cast film to pentacene” value in data set [3] was “did not yield either pentacene or 1,2,3,4,8,9,10,11-octachloropentacene”.

On to `O=C1[C@@H]2C=C[C@@H]1c1cc3cc4cc5ccccc5cc4cc3cc12` [Compound 11], for which the “stability (in words)” value in data set [4] was “relatively low”. As for `O=C1C2C=CC1c1cc3c(cc12)[C@H]1C(=O)[C@H]3c2cc3c(cc21)C1C=C[C@H]3C1=O` [Compound 14], the “stability (in words)” value in data set [4] is on record as “relatively low”. `O=C1[C@H]2c3cc4ccccc4cc3[C@H]1c1cc3ccccc3cc12` [Compound 1, reference compound]: the solubility in data set [2] (setting [7]) was roughly 700 µg/mL (≈ 2280 µM). Moreover, the “temperature at which CO expulsion / decomposition starts” value in data set [3] (TGA, 10° C./min heating rate) was 150 °C. The “temperature of CO extrusion to pentacene” value in data set [5] was 150 °C. As for `c1csc(-c2ccc3cc4cc(-c5cccs5)ccc4cc3c2)c1` [Compound 35], in data set [1], the solubility result is “undesirably low solubility”. On to `C1=C[C@@H]2c3cc4cc5cc6c(cc5cc4cc3[C@@H]1[C@]21OCCO1)[C@H]1C=C[C@@H]6[C@]12OCCO2` [Compound 16], for which the “fragmentation / dissociation temperature of ethylene ketal (CO2 and ethylene released)” value in data set [3] (TGA) was “about 225 °C”.

With `O=C1C2C=CC1c1cc3cc4cc5c(cc4cc3cc12)C1C=CC5C1=O` [Compound 13A], the “stability (in words)” value in data set [4] is reported as “decomposed readily at ambient conditions; also recorded: not stable enough to sustain at ambient conditions”. Regarding `c1ccc(-c2ccc3cc4cc(-c5ccccc5)ccc4cc3c2)cc1` [Compound 37], the solubility result in data set [1] is recorded as “undesirably low solubility”. For the compound `c1ccc2cc3cc4cc5ccccc5cc4cc3cc2c1` [pentacene], in data set [3] (pentacene produced from compound 2, TGA), the “temperature up to which stable” value is 300 °C. For the compound `COC1(OC)C2C=CC1c1cc3cc4cc5c(cc4cc3cc12)C1C=CC5C1(OC)OC` [Compound 25], the solubility entry in data set [2] (setting [6]) is “good solubility”. In addition, the decomposition temperature is 288 °C in data set [3] (anti isomer) and 252 °C in data set [3] (syn isomer). In addition, the “thermal conversion of spin-cast film to pentacene” value in data set [3] was “did not yield either pentacene or 1,2,3,4,8,9,10,11-octachloropentacene”.

As for `O=C1C2C=CC1c1cc3cc4cc5c(cc4cc3cc12)C1C=CC5C1=O` [Compound 13], the “stability (in words)” value in data set [4] is on record as “cannot be isolated at ambient temperature; also recorded: relatively low”. For the compound `O=C1C2c3ccccc3[C@@H]1c1cc3c(cc12)[C@@H]1C(=O)[C@@H]3c2ccccc21` [Compound 12], in data set [2], the “solubility (comparison in words)” value was “higher solubility than either compound 1 or 2”. The “stability (in words)” value in data set [4] is “stable at low temperature for a long period of time; also recorded: can be kept at −10 °C for an extended period of time”. On to `O=C1[C@@H]2c3ccccc3[C@@H]1c1cc3cc4ccccc4cc3cc12` [Compound 2], for which, in data set [2] (setting [7]), the solubility was roughly 700 µg/mL (≈ 2280 µM). For the same compound, the “solubility (comparison in words)” value in data set [2] is “better than compound 1”. The compound also registered a weight loss in data set [3] (thermogravimetric curve, corresponds to a CO unit) of 10%. For the same compound, the “stability (in words)” value in data set [4] is given as “stable at ambient temperature”. The “temperature of CO extrusion to pentacene” value in data set [5] was 128 °C.
